In ChEMBL document CHEMBL4392888, “Isolation of Sesquiterpene-Amino Acid Conjugates, Onopornoids A-D, and a Flavonoid Glucoside from Onopordum alexandrinum” (J Nat Prod, 2019):

Columns and labels:
Bacteria = test: Antimicrobial activity against bacteria; format: functional, organism-based
Leishmania = test: Antimicrobial activity against Leishmania; format: functional, organism-based
Tyrosinase = target: T1, Tyrosinase (Homo sapiens, UniProt P14679); test: Inhibition of tyrosinase (unknown origin)
T1 sequence (P14679 whole entry): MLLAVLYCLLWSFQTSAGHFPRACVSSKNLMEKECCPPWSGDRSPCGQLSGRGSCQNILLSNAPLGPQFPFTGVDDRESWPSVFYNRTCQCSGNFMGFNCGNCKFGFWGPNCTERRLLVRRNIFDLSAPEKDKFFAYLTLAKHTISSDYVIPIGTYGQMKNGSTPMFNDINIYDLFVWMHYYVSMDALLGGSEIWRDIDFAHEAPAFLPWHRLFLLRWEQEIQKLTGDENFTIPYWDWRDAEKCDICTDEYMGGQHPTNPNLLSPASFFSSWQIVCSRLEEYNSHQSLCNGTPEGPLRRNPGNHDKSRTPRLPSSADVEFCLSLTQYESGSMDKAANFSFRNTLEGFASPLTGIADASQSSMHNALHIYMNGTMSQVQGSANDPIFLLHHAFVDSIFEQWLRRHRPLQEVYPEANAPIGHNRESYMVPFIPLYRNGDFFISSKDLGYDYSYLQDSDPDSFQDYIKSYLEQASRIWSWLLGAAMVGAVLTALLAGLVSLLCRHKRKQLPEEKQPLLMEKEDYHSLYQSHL

[1] = Antioxidant activity assessed as DPPH radical scavenging activity incubated for 30 mins by UV-spectrophotometric method; format: functional

IC50 (Bacteria) | IC50 (Leishmania) | IC50 (Tyrosinase) | IC50 [1] | SMILES
> 50 µM | > 50 µM | > 50 µM |  | C=C[C@]1(C)C[C@H](OC(=O)C(=C)CO)[C@@H]2[C@H](OC(=O)[C@H]2CN2CCC[C@H]2C(=O)O)[C@H]1C(=C)CO
> 50 µM | > 50 µM | > 50 µM |  | COC(=O)[C@H]1O[C@@H](Oc2cc(O)c3c(=O)cc(-c4ccc(O)cc4)oc3c2)[C@H](O)[C@@H](O)[C@@H]1O
> 50 µM | > 50 µM | > 50 µM |  | C=C[C@]1(C)C[C@H](OC(=O)[C@@H](C)CO)[C@@H]2[C@H](OC(=O)[C@H]2CN2CCC[C@H]2C(=O)O)[C@H]1C(=C)CO
> 50 µM | > 50 µM | > 50 µM |  | C[C@@H]1O[C@@H](OC[C@H]2O[C@@H](Oc3cc(O)c4c(=O)cc(-c5ccc(O)cc5)oc4c3)[C@H](O)[C@@H](O)[C@@H]2O)[C@H](O)[C@H](O)[C@H]1O [ISORHOIFOLIN]
> 50 µM | > 50 µM | > 50 µM |  | C=C[C@]1(C)C[C@H](OC(=O)/C(=C/C)CO)[C@@H]2[C@H](OC(=O)[C@H]2CN2CCC[C@H]2C(=O)O)[C@H]1C(=C)CO
> 50 µM | > 50 µM | > 50 µM | 68.9 µM | O=C(/C=C/c1ccc(O)c(O)c1)O[C@H]1[C@H](O)[C@@H](O)[C@H](Oc2cc(O)c3c(=O)cc(-c4ccc(O)c(O)c4)oc3c2)O[C@@H]1CO
> 50 µM | > 50 µM | > 50 µM |  | COc1ccc(-c2cc(=O)c3c(O)cc(O[C@@H]4O[C@H](CO)[C@@H](O)[C@H](O)[C@H]4O)cc3o2)cc1 [TILIANINE]
> 50 µM | > 50 µM | > 50 µM |  | COc1ccc(-c2cc(=O)c3c(O)cc(O[C@@H]4O[C@H](CO[C@@H]5O[C@@H](C)[C@H](O)[C@@H](O)[C@H]5O)[C@@H](O)[C@H](O)[C@H]4O)cc3o2)cc1 [ACACIIN]
> 50 µM | > 50 µM | > 50 µM |  | COC(=O)[C@H]1O[C@@H](Oc2cc(O)c3c(=O)cc(-c4ccc(OC)cc4)oc3c2)[C@H](O)[C@@H](O)[C@@H]1O
> 50 µM | > 50 µM | > 50 µM |  | C[C@@H]1O[C@@H](Oc2cc(O)c3c(=O)cc(-c4ccc(O)cc4)oc3c2)[C@H](O)[C@H](O)[C@H]1O
> 50 µM | > 50 µM | > 50 µM |  | C=C(CO)C(=O)O[C@H]1C/C(C)=C/CC/C(CO)=C/[C@H]2OC(=O)[C@@H](CN3CCC[C@H]3C(=O)O)[C@H]12
> 50 µM | > 50 µM | > 50 µM | 75.3 µM | O=c1c(O[C@@H]2O[C@H](CO)[C@@H](O)[C@H](O)[C@H]2O)c(-c2ccc(O)c(O)c2)oc2cc(O)cc(O)c12 [ISOQUERCETIN]
> 50 µM | > 50 µM | > 50 µM |  | COc1ccc(C[C@H]2COC(=O)[C@@H]2Cc2ccc(O[C@@H]3O[C@H](CO)[C@@H](O)[C@H](O)[C@H]3O)c(OC)c2)cc1OC [ARCTIIN]
> 50 µM | > 50 µM | > 50 µM |  | O=c1cc(-c2ccc(O)cc2)oc2cc(O[C@@H]3O[C@H](CO)[C@@H](O)[C@H](O)[C@H]3O)cc(O)c12 [APIGETRIN]
